Assay results taken from publication PMC6244206, “C-Terminal Residue of Ultrashort Peptides Impacts on Molecular Self-Assembly, Hydrogelation, and Interaction with Small-Molecule Drugs” (Scientific Reports, 2018).
Several values for one entry are separate records, joined by “and”; a condition that tells them apart may be missing. Equal entries are not always repeated.

Columns and labels:
[1] = Small-molecule drug elution studies from peptide hydrogels; assay type: physicochemical; settings: for Drug loading capacity in the peptide hydrogels: SMD 2 mM in peptide hydrogels 20 mM (peptides 1A and 1B)
Procedure: We compared the SMD elution profiles of the peptide hydrogels with the theoretical maximal amount of SMD that would diffuse from the hydrogel into the extra volume of PBS if there were no obstruction to diffusion.
The peptides were weighed out in 4 mL-vials, after which phosphate-buffered saline (PBS) containing the small-molecule drug (SMD final concentration = 2 mM) was added to a final volume of 0.30 mL each. The peptide-SMD-PBS mixtures were then shaken and sonicated for 10 s, after which the mixtures were allowed to anneal for 24 h. After that, 0.75 mL of fresh PBS was slowly added with a pipettor to the surface of the hydrogel so as not to disturb the surface of the gel. After 24 h at 25 °C, the PBS was carefully extracted with a pipettor for UV/vis analysis; a fresh volume (0.75 mL) of PBS was then replaced. This process was repeated as many times as the number of pre-determined elution samples. The extracted PBS was transferred into a cuvette (pathlength = 10 mm) and analysed with an Agilent 8543 UV/visible spectrometer for the presence of the SMD. […] A control experiment was set up for each peptide hydrogel, for which no drug was added. This is to account for absorption at the respective wavelengths due to eluted peptide. The elution profile of each peptide is compared with a theoretical maximal elution profile, viz. the theoretical maximal amount of SMD that would diffuse from the hydrogel into the extra volume of PBS if there were no obstruction to diffusion. The cumulative eluted percentage of SMD at each point is given by: [1 − (1/3.5)^n] 100%, where n is the number of elution.

[2] = cited from earlier work
[3] = Solubility of peptides in phosphate-buffered saline to form clear solutions; assay type: physicochemical; settings: pH 7.4
Procedure: The peptides were prepared via standard solid-phase peptide synthesis. The purification of all peptides was straightforward, except for peptide 1D. […] As a result, it frequently precipitated on the reversed-phase column during HPLC (high performance liquid chromatography) purification with a gradient of acetonitrile/water, leading to poor yields (<10%). The solubilities of peptides 1 and 2 in phosphate-buffered saline (PBS; pH 7.4) to form clear solutions were then tested; peptides 1A and 2A were also assessed as references. […] As Table 1 indicates, the hexapeptides dissolve to a lower extent than the tripeptides. This is reflective of the greater propensity of the hexapeptides to self-assemble and aggregate due to their longer hydrophobic backbone. In addition, peptides with lysine and arginine dissolve to a greater extent due to their charged side chains at pH 7.4.

[4] = Zeta potential measurements of peptide fibrils; assay type: physicochemical; settings: in water, peptide 10 mM, 25 °C; mean of triplicate measurements
Procedure: The zeta potential of the peptide fibrils was measured with an Anton Paar Litesizer 500 Particle Sizer. An omega zeta potential cuvette was utilised for the measurements, which was kept at a constant temperature of 25 °C. Triplicate measurements of each peptide sample were made at concentrations of 10 mM in water.

[5] = Gelation studies of peptides in PBS; assay type: physicochemical
Procedure: Although peptide 1C could form a gel at 40 mg/mL (30 mM), the hydrogel formed was opaque and inhomogeneous; this is a big contrast to peptide 1A that forms a clear and transparent hydrogel (Fig. 3a). […] On the other hand, perhaps unsurprisingly, the tripeptides generally require higher concentrations to gel. Peptide 2A was previously reported to require a higher peptide concentration to gel than peptide 1A[50]. This has also been observed for peptide 2B, in which 30 mM is required (c.f. 15 mM for peptide 2A). […] As with peptide 1D, peptide 2D could not gel and only precipitated. […] When the hydrophilic components are dominant, the enhanced solubility reduces the driving forces for self-assembly. Consequently, hydrogelation is observed at markedly higher concentrations. Such a balance of hydrophilicity/hydrophobicity has been exploited (via enzymatic control) for the formulation of hydrogels[52],[53].
All peptides were prepared via fluoren-9-ylmethoxycarbonyl (Fmoc)-based solid phase peptide synthesis and purified via reversed-phase high performance liquid chromatography-mass spectrometry (HPLC-MS) on an Agilent 6130 Quadrupole LC/MS system. Peptide hydrogels were prepared by weighing out the appropriate peptide mass in 2 mL-vials. After the requisite volume of phosphate-buffered saline (PBS) was added, the peptide-water mixture was shaken and sonicated for 10 s. […]

[6] = PBS; previously reported; cited from earlier work
Procedure: Although peptide 1C could form a gel at 40 mg/mL (30 mM), the hydrogel formed was opaque and inhomogeneous; this is a big contrast to peptide 1A that forms a clear and transparent hydrogel (Fig. 3a). […] This is a big contrast to peptides 1E and 2E, which were previously reported t ...

[7] = Rheological studies of the peptide hydrogels; assay type: physicochemical; settings: hydrogels 40 mg/mL in PBS, oscillatory strain sweep, 6.28 rad/s, 25 °C, triplicates
Procedure: Viscoelastic properties of the hydrogels were assessed at 25 °C with an ARES-G2 rheometer (TA Instruments, Piscataway, NJ) in the 25.0 mm-diameter titanium parallel plate geometry and a gap distance of 0.8 mm. For oscillatory frequency sweep studies, the plate rotation was varied between 0.1–100 rad/s at a constant strain of 0.1%. For oscillatory strain sweep studies, the strain was varied between 0.001–100% at a constant frequency of 6.28 rad/s. Each experiment was carried out in triplicates. This procedure was also previously described by us[88].

Soluble peptide concentration [3] [mg/mL]	Zeta potential [4]	Appearance of hydrogel at 40 mg/mL ([5]; 40 mg/mL in PBS)	Status of gel ([5]; phosphate-buffered saline, pH 7.4, at minimal gelation concentration)	Hydrogel formation with doxorubicin ([1]; doxorubicin 2 mM in PBS)	Encapsulated doxorubicin eluted from peptide hydrogel ([1]; doxorubicin 2 mM in peptide hydrogel 20 mM, PBS pH 7.4, 25 °C, repeated elutions with 0.75 mL PBS, UV/vis 480 nm, n = 3) [%]	Hydrogel formation with naltrexone ([1]; naltrexone 2 mM in PBS)	Yield stress / strain at which the hydrogel breaks down [7] [%]	Molecule	Drug loading capacity in the peptide hydrogels [1] [mg/g]	pKa [2]	Hydrogel formation with methotrexate ([1]; methotrexate 2 mM in PBS)	Gelation concentration [6]
–	–	–	–	–	–	–	–	CN(Cc1cnc2nc(N)nc(N)c2n1)c1ccc(C(=O)N[C@@H](CCC(=O)O)C(=O)O)cc1 [methotrexate, reference compound]	0.89	–	–	–
–	–	–	–	–	–	–	–	O=C1CC[C@@]2(O)[C@H]3Cc4ccc(O)c5c4[C@@]2(CCN3CC2CC2)[C@H]1O5 [naltrexone, reference compound]	0.67	~ 8.1	–	–
3	+33.40 ± 0.17 mV	transparent hydrogels	Clear, transparent	formed stable hydrogels	40	formed stable hydrogels	3	acetylated Leu-Ile-Val-Ala-Gly-Lys-NH2 [Peptide 1A]	–	–	could do so with methotrexate (with some coagulation within the hydrogel)	10 mg/mL and 6 mM
